Results as given in PMC5433508 (Chemical Science, 2017).

Test system: MDA-MB-231 cells
Experiment: MTT cell viability assay, MDA-MB-231
Assay type: cell-based, human
Conditions: co-treatment with LYN-1604 for 24 h

CNC(=O)c1ccccc1Oc1nc(Nc2cc(OC)c(OC)c(OC)c2)ncc1Br [SBI-0206965]
effect on LYN-1604-induced cell death: decrease LYN-1604-induced cell death
